From US20180289713A1, “COMPOUNDS FOR TREATING AMYOTROPHIC LATERAL SCLEROSIS” (Hoffmann-La Roche Inc., priority 2015, published 2018) come the findings set out here.

Structures are written as SMILES.

The assay relates to SMN protein in SMA patient fibroblast cells. Nature of the assay: SMN protein assay in cultured cells (SMN HTRF). In kind it is cell-based, human. The settings on record: concentration producing 1.5 times SMN protein vs vehicle; SMA patient fibroblasts, 48 hours, 7-point curve. From the text: The term “EC1.5× concentration for SMN protein expression” (or “EC1.5× SMN protein”) is defined as that concentration of test compound that is effective in producing 1.5 times the amount of SMN protein in an SMA patient fibroblast cell compared to the amount produced from the vehicle control.
The SMN HTRF (homogeneous time resolved fluorescence) assay is used to quantify the level of SMN protein in SMA patient fibroblast cells treated with test compounds. Materials used and respective sources are listed below in Table 3.
Cells are thawed and cultured in DMEM-10% FBS for 72 hours. Cells are trypsinized, counted and re-suspended to a concentration of 25,000 cells/mL in DMEM-10% FBS. The cell suspensions are plated at 5,000 cells per well in a 96 well microtiter plate and incubated for 3 to […]. Test compounds are serially diluted 3.16-fold in 100% DMSO to generate a 7-point concentration curve. 1 μL of test compound solution is transferred to cell-containing wells and cells are incubated for 48 hours in a cell culture incubator (37° C., 5% CO2, 100% relative humidity). Triplicate samples are set up for each test compound concentration. After 48 hours, the supernatant is removed from the wells and 25 μL of the RIPA lysis buffer, containing protease inhibitors, is added to the wells and incubated with shaking at room temperature for 1 hour. 25 μL of the diluent is added and then 35 μL of the resulting lysate is transferred to a 384-well plate, where each well contains 5 μL of the antibody solution (1:100 dilution of anti-SMN d2 and anti-SMN kryptate in SMN reconstitution buffer). The plate is centrifuged for 1 minute to bring the solution to the bottom of the wells, then incubated overnight at room temperature. Fluorescence for each well of the plate at 665 nm and 620 nm is measured on an EnVision multilabel plate reader (Perkin-Elmer).
The normalized fluorescence signal is calculated for each sample, Blank and vehicle control well by dividing the signal at 665 nm by the signal at 620 nm. Normalizing the signal accounts for possible fluorescence quenching due to the matrix effect of the lysate. The ΔF value (a measurement of SMN protein abundance as a percent value) for each sample well is calculated by subtracting the normalized average fluorescence for the Blank control wells from the normalized fluorescence for each sample well, then dividing this difference by the normalized average fluorescence for the Blank control wells and multiplying the resulting value by 100. The ΔF value for each sample well represents the SMN protein abundance from test compound-treated samples. The ΔF value for each sample well is divided by the ΔF value for the vehicle control wells to calculate the fold increase in SMN protein abundance relative to the vehicle control. Table 4 provides EC1.5× concentrations for SMN protein expression that was obtained from the 7-point concentration data generated according to the above procedure for particular compounds of the present invention.
Table 5 provides the maximum fold increase of SMN protein that was obtained from the 7-point concentration data generated according to the above procedure for particular compounds of the present invention
A general note: In TR-FRET formats the signal depends on donor and acceptor labels being close together.
Consider `Cc1cn2nc(-c3cc(=O)n4cc(N5CCN6CCC[C@]6(C)C5)ccc4n3)cc(C)c2n1` [Example 6, 7-[(8aR)-8a-methyl-1,3,4,6,7,8-hexahydropyrrolo[1,2-a]pyrazin-2-yl]-2-(2,8-dimethylimidazo[1,2-b]pyridazin-6-yl)pyrido[1,2-a]pyrimidin-4-one], for which the “EC1.5x SMN protein” value stood at 11 nM. Turning to `Cc1cn2nc(-c3cc(=O)n4cc(N5CCNC6(CC6)C5)cc(C)c4n3)ccc2n1` [Example 37, 7-(4,7-diazaspiro[2.5]octan-7-yl)-9-methyl-2-(2-methylimidazo[1,2-b]ipyridazin-6-yl)pyrido[1,2-a]pyrimidin-4-one], the “EC1.5x SMN protein” value is 45 nM. With `Cc1cn2nc(-c3cc(=O)n4cc(N5CCN[C@@H](C)C5)ccc4n3)cc(C)c2n1` [Example 8, 2-(2,8-dimethylimidazo[1,2-b]pyridazin-6-yl)-7-[(3S)-3-methylpiperazin-1-yl]pyrido[1,2-a]pyrimidin-4-one], the “EC1.5x SMN protein” value was 5.9 nM. With `Cc1cn2nc(-c3cc(=O)n4cc(N5CC[C@@H](N6CCCC6)C5)ccc4n3)cc(C)c2n1` [Example 18, 2-(2,8-dimethylimidazo[1,2-b]pyridazin-6-yl)-7-[(3R)-3-pyrrolidin-1-ylpyrrolidin-1-yl]pyrido[1,2-a]pyrimidin-4-one], the “EC1.5x SMN protein” value was 25 nM. The figure for `Cc1cn2nc(-c3cc(=O)n4cc(N5C[C@H](C)N[C@@H](C)C5)ccc4n3)cc(C)c2n1` [Example 29, 2-(2,8-dimethylimidazo[1,2-b]pyridazin-6-yl)-7-[(3S,5S)-3,5-dimethylpiperazin-1-yl]pyrido[1,2-a]pyrimidin-4-one] is 2.1 nM; for `Cc1cn2nc(-c3cc(=O)n4cc(N5CCN[C@H](C)C5)ccc4n3)cc(C)c2n1` [Example 9, 2-(2,8-dimethylimidazo[1,2-b]pyridazin-6-yl)-7-[(3R)-3-methylpiperazin-1-yl]pyrido[1,2-a]pyrimidin-4-one] it is 2.5 nM. The same measure for `Cc1cn2nc(-c3cc(=O)n4cc(N5CCCNCC5)ccc4n3)ccc2n1` [Example 13, 7-(1,4-diazepan-1-yl)-2-(2-methylimidazo[1,2-b]pyridazin-6-yl)pyrido[1,2-a]pyrimidin-4-one]: 3 nM; for `Cc1cn2nc(-c3cc(=O)n4cc(N5CCN[C@@H](C)C5)cc(C)c4n3)ccc2n1` [Example 33, 9-methyl-2-(2-methylimidazo[1,2-b]pyridazin-6-yl)-7-[(3S)-3-methylpiperazin-1-yl]pyrido[1,2-a]pyrimidin-4-one]: 4 nM. For `Cc1cn2nc(-c3cc(=O)n4cc(N5CCN6CCC[C@@]6(C)C5)ccc4n3)cc(C)c2n1` [Example 5, 7-[(8aS)-8a-methyl-1,3,4,6,7,8-hexahydropyrrolo[1,2-a]pyrazin-2-yl]-2-(2,8-dimethylimidazo[1,2-b]pyridazin-6-yl)pyrido[1,2-a]pyrimidin-4-one], the “EC1.5x SMN protein” value was found to be 4.1 nM. Turning to `Cc1cn2nc(-c3cc(=O)n4cc(N5CCN[C@@H](C)C5)cc(C)c4n3)cc(C)c2n1` [Example 24, 2-(2,8-dimethylimidazo[1,2-b]pyridazin-6-yl)-9-methyl-7-[(3S)-3-methylpiperazin-1-yl]pyrido[1,2-a]pyrimidin-4-one], the “EC1.5x SMN protein” value is listed as 4.7 nM.

As for `Cc1cn2nc(-c3cc(=O)n4cc(N5C[C@H](C)N[C@@H](C)C5)ccc4n3)ccc2n1` [Example 32, 7-[(3S,5S)-3,5-dimethylpiperazin-1-yl]-2-(2-methylimidazo[1,2-b]pyridazin-6-yl)pyrido[1,2-a]pyrimidin-4-one], the “EC1.5x SMN protein” value was determined as 4 nM. Take `Cc1cn2nc(-c3cc(=O)n4cc(N5C[C@H](C)N[C@@H](C)C5)cc(C)c4n3)ccc2n1` [Example 38, 7-[(3S,5S)-3,5-dimethylpiperazin-1-yl]-9-methyl-2-(2-methylimidazo[1,2-b]pyridazin-6-yl)pyrido[1,2-a]pyrimidin-4-one]: the “EC1.5x SMN protein” value came out at 3.1 nM. Take `Cc1cn2nc(-c3cc(=O)n4cc(N5CCNC6(CC6)C5)ccc4n3)cc(C)c2n1` [Example 20, 7-(4,7-diazaspiro[2.5]octan-7-yl)-2-(2,8-dimethylimidazo[1,2-b]pyridazin-6-yl)pyrido[1,2-a]pyrimidin-4-one]: the “EC1.5x SMN protein” value came out at 37 nM.

With `Cc1cn2nc(-c3cc(=O)n4cc(N5CCN[C@@H](C)C5)ccc4n3)ccc2n1` [Example 11, 2-(2-methylimidazo[1,2-b]pyridazin-6-yl)-7-[(3S)-3-methylpiperazin-1-yl]pyrido[1,2-a]pyrimidin-4-one], the “EC1.5x SMN protein” value is on record as 7 nM. The same measure for `Cc1cn2nc(-c3cc(=O)n4cc(N5CCN[C@H](C)C5)ccc4n3)ccc2n1` [Example 12, 2-(2-methylimidazo[1,2-b]pyridazin-6-yl)-7-[(3R)-3-methylpiperazin-1-yl]pyrido[1,2-a]pyrimidin-4-one]: 7.5 nM; for `Cc1cn2nc(-c3cc(=O)n4cc(N5CCN6CCC[C@@]6(C)C5)ccc4n3)ccc2n1` [Example 16, 7-[(8aS)-8a-methyl-1,3,4,6,7,8-hexahydropyrrolo[1,2-a]pyrazin-2-yl]-2-(2-methylimidazo[1,2-b]pyridazin-6-yl)pyrido[1,2-a]pyrimidin-4-one]: 3 nM. `Cc1cn2nc(-c3cc(=O)n4cc(N5CCN[C@H](C)C5)cc(C)c4n3)ccc2n1` [Example 34, 9-methyl-2-(2-methylimidazo[1,2-b]pyridazin-6-yl)-7-[(3R)-3-methylpiperazin-1-yl]pyrido[1,2-a]pyrimidin-4-one]: the “EC1.5x SMN protein” value amounted to 4.4 nM.
